Measurements reported in US9034299B2, “ATF4 inhibitors and their use for neural protection, repair, regeneration, and plasticity” (priority 2007, dated 2015).

Key:
Format in all cases: cell-based, mouse
[1] = test system: embryonic cortical neurons; experiment: Cell viability of primary cortical neurons (MTT assay, live/dead assay)
Method: (§1) FIG. 1. Amino acid depletion and thapsigargin treatment induce ATF4 and protect embryonic cortical neurons from oxidative stress-induced cell death. (A) Cortical neuronal cultures (1 d in vitro) were treated with a vehicle control (shown as C), 10 mM of the glutamate analogue HCA, 1 μg/ml arginase, 1 μM thapsigargin, 1 μg/ml arginase and 10 mM HCA, or 10 mM HCA and 1 μM thapsigargin. 24 h later, cell viability was determined using the MTT assay. The graph depicts mean (compared with control)±SD calculated from three separate experiments for each group (n=25). *, P<0.05 from HCA-treated cultures by the Kruskal-Wallis test followed by Dunn's multiple comparisons test. (B) Live/dead assay of cortical neuronal cultures (2 d in vitro). Live cells were detected by uptake and trapping of calcein-AM (green fluorescence). […] Bar, 50 μm. […] Cells were harvested at the indicated time points, and nuclear extracts were separated using gel electrophoresis and immunodetected using an antibody against ATF4. YY1 was monitored as a loading control. The immunoblot is a representative example of three experiments.
(§2) FIG. 5. ATF4 has a negative impact on the neuronal glutathione metabolism. (A) ATF4^+/+ (♦) and ATF4^−/− (▴) cortical neurons were treated with 10 mM HCA. At the indicated time points, cells were trypsinized, washed, and pelleted. Reduced glutathione (GSH) was determined in the cell pellets using HPLC electrochemical detection. Data are from three separate cultures, and each data point was measured in duplicate. Graph depicts mean±SD. (B) Schematic overview over cysteine uptake and glutathione synthesis and their inhibition. (C) ATF4^+/+ and ATF4^−/− cortical neurons were treated with a vehicle control (shown as C) or 200 μM BSO. 24 h later, cell viability was determined using the MTT assay. The graph depicts mean (compared with control)±SD calculated from five separate experiments for each group (n=46 ATF4^+/+ and 58 ATF4^−/−). *, P<0.05 from untreated ATF4^+/+ cultures by the Kruskal-Wallis test followed by Dunn's multiple comparisons test. The difference between treated and untreated ATF4^−/− neurons was not significant (n.s.). (D) Live/dead assay displaying untreated and BSO-treated ATF4^+/+ and ATF4^−/− neurons. Bar, 50 μm. […] Cytoplasmic extracts were separated using gel electrophoresis and immunodetected using an antibody against γGCS. Total eIF2α was monitored as a loading control. (F) ATF4^+/+ (♦) and ATF4^−/− (▪) cortical neurons were treated with 200 μM BSO. At the indicated time points, cells were trypsinized, washed, and pelleted. GSH was determined in the cell pellets using HPLC electrochemical detection. Data are from three separate cultures, and each data point was measured in duplicate. Graph depicts mean±SD. (G) ATF4^+/+ cortical neurons were infected with GFP (♦), ATF4WT (▪), and ATF4ΔRK (▴) adenoviruses at an MOI of 100. At the indicated time points after infection, cells were trypsinized, washed, and pelleted. GSH was determined in the cell pellets using HPLC electrochemical detection. The graph depicts mean±SD calculated from three separate experiments for each group, and each data point was measured in duplicate. The value obtained from noninfected neurons was arbitrarily defined as 100%. […] The graph depicts mean (compared with control) ±SD calculated from five separate experiments for each group (n=29). *, P<0.05 from untreated neurons overexpressing ATF4WT by the Kruskal-Wallis test followed by Dunn's multiple comparisons test. […]

[2] = test system: reduced glutathione (GSH) in cortical neurons; experiment: Reduced glutathione (GSH) in cortical neurons by HPLC electrochemical detection; settings: 10 mM HCA or 200 μM BSO, time course; for glutathione concentration, ATF4+/+ neurons: ATF4+/+ cortical neurons; for glutathione concentration, ATF4−/− neurons: ATF4−/− cortical neurons
Method: as §2, with “BSO. […]” for “BSO. At the indicated time points, cells were trypsinized, washed, and pelleted.”, “duplicate. […]” for “duplicate. Graph depicts mean±SD. (G) ATF4^+/+ cortical neurons were infected with GFP (♦), ATF4WT (▪), and ATF4ΔRK (▴) adenoviruses at an MOI of 100. At the indicated time points after infection, cells were trypsinized, washed, and pelleted.”, “duplicate.” for “duplicate. The value obtained from noninfected neurons was arbitrarily defined as 100%.”
Concentrations of reduced glutathione were measured using HPLC (PerkinElmer) equipped with an eight-channel coulometric array detector (ESA, Inc.). […] Glutathione concentrations of supernatant fractions were determined by injecting 5-μl aliquots onto an Ultrasphere 5 u, 4.6×250 mm, C18 column (Beckman Coulter), and eluting with a mobile phase of 50 mM NaH2PO4, 0.05 mM octane sulfonic acid, 1.5% acetonitrile (pH 2.62) at a flow rate of 1 ml/min. Peak areas were analyzed using software from ESA, Inc. Intracellular generation of ROS was determined by DCF. Cortical neurons were seeded in 96-well fluorescence plates. […] Cells were washed with HBSS and read on a plate reader (Fluorometer; MDS Analytical Technologies) at 485-nm excitation and 530-nm emission wavelengths.

TRB3 mRNA = experiment: Real-time PCR of TRB3 mRNA expression in cortical neurons; settings: 10 mM HCA; ATF4-dependent (ATF4+/+ versus ATF4−/− neurons)
ATF4 = ATF4 immunoblot of nuclear extracts from cultured cortical neurons; settings: 10 mM HCA, 1 μg/ml arginase or 1 μM thapsigargin, versus vehicle control
Method: as §1

Row | Structure (SMILES) | glutathione concentration, ATF4+/+ neurons [2] | glutathione concentration, ATF4−/− neurons [2] | ATF4 protein expression/accumulation (ATF4) | also measured
1 | COc1ccc(O)c(C(C)(C)C)c1 [BHA, butylated hydroxyanisol] |  |  |  | neuronal viability in neurons overexpressing ATF4WT ([1]; ATF4+/+ cortical neurons infected with ATF4WT adenovirus, MOI 100, 10 μM BHA): significantly increased neuronal viability; protection against additional HCA toxicity in neurons overexpressing ATF4WT ([1]; ATF4WT adenovirus, MOI 100, 10 μM BHA plus 10 mM HCA): protected against the additional toxic effect of HCA treatment
2 | CCCCS(=N)(=O)CCC(N)C(=O)O (stereo not drawn) [BSO, buthionine sulfoximine] | decline in the concentration of glutathione | distinctly slower reduction of glutathione |  | cell viability, ATF4+/+ neurons ([1]; 200 μM BSO, 24 h, ATF4+/+ cortical neurons): resulted in cell death; cell viability, ATF4−/− neurons ([1]; 200 μM BSO, 24 h, ATF4−/− cortical neurons): essentially resistant
3 | NC(CCS(=O)(=O)O)C(=O)O (stereo not drawn) [HCA, homocysteate] | progressive loss of glutathione | markedly slower decline in glutathione concentration | increases the expression of ATF4 | TRB3 mRNA expression (TRB3 mRNA): induced
4 | C/C=C(/C)C(=O)O[C@H]1C(C)=C2[C@H]([C@@H]1OC(=O)CCCCCCC)[C@@](C)(OC(C)=O)C[C@H](OC(=O)CCC)[C@@]1(O)[C@H]2OC(=O)[C@@]1(C)O [thapsigargin] |  |  | accumulation of ATF4 protein | protection from oxidative stress-induced neuronal cell death ([1]; 10 mM HCA, 24 h, 1 μg/ml arginase or 1 μM thapsigargin, MTT and live/dead assay): nearly complete protection from neuronal cell death
